Laboratory results: patent US6159940A, “Method for modulating hemopoiesis” (Immunotech Developments Inc., priority 1999, dated 2000)

How the values were obtained:
[1] = tested on: nucleated blood cells; assay: Nucleated blood cells and lymphocytes in irradiated mice (4 Gy), scheme 1; type: in vivo; parameters: Lymphocytes (absolute) in blood: unit not given here; conditions: for Karyocyte Count in Blood: scheme 1, 10 μg/kg i.m.
Protocol: Irradiated mice (4 Gy) received intramuscular injections of the peptide in the dose of 10 μg/kg according to 2 schemes.
a) Scheme 1: mice received the peptide immediately after irradiation, daily. […] Blood samples were taken four hours after the last peptide injection and on the 7th, 10th, and 16th day after the irradiation. Determined were total count of nucleated blood cells (NC) and lymphocyte percentage of them; nucleated cells and the CFU-S population in femoral bone marrow were counted on the 4th, 8th, and the 14th day.

[2] = tested on: hemopoietic progenitor cells; assay: Exogenous spleen colonies from irradiated bone marrow cells; type: in vivo, mice; conditions: day 9
Protocol: For this purpose, known methods using exogenous spleen colonies were applied. […] Different doses of the peptide were injected intravenously (i.v.), intraperitoneally (i.p.), or intramuscularly (i.m.) to lethally irradiated recipients an hour after the injections of irradiated bone marrow. Colonies were counted on day 9. 350 mice were used as test animals. The data for each group are the average of three tests.

[3] = tested on: CFU-S; assay: Spleen colony formation from RAMBS-treated bone marrow in lethally irradiated mice; type: in vivo, (CBA×C57BL)F1 female mice
Text: (CBA×C57BL)F1 female mice (n=2500), 2-months old, weighing about 20 g, were used in the experiment.
As is known, there is a close relationship between T-cells and hemopoietic progenitors. It was shown that, along with colony-forming units of spleen (CFU-S), thymocytes participate in colony formation of spleens of irradiated mice by controlling proliferation of the hemopoietic progenitor cells. The fact was established in a test system, which allowed a selective removal of accessory T-cells from bone marrow with the help of rabbit antimouse brain antiserum (RAMBS) and their substitution with other factors. Aliquots (0.1 ml) of bone marrow suspension (2×10^7 cells), RAMBS, and medium 199 were mixed and incubated for 1 hour at 37° C. Then the cells were washed with centrifuging, resuspended and injected to lethally irradiated mice.
According to the aforesaid scheme, instead of thymocytes mice received the peptide, H-Ile-Glu-Trp-OH injections 30 minutes before the injections of RAMBS-treated bone marrow suspension.

[4] = tested on: lymphocytes in guinea pigs; assay: E-rosette formation test after trypsin treatment; type: cell-based
Text: The biological action of the novel peptide was studied in guinea pigs in the conventional E-rosette formation test.

[5] = Effect on kidney function (anti-diuretic activity); parameters: species or system white mice; conditions: mouse, in vivo
Text: The anti-diuretic activity of H-Ile-Glu-Trp-OH was studied in 40 white mice.

[6] = Acute toxicity in dogs; type: in vivo; conditions: 6 dogs
Protocol: To establish the safety of use of the peptides, toxicity tests were performed. Toxicity tests where performed in accordance Pharmacological Committee Russian Federation (RF) "guidelines for the pre-clinical study of general toxic activity of new pharmacological compounds". M., 1985.
Acute toxicity was studied in 20 guinea pigs and 6 dogs. […] The drug has a wide therapeutic range.

[7] = Effect on liver function; type: in vivo, rabbits; conditions: 0.01% solution for 30 days
Protocol: The tests were performed in 20 rabbits, who received injections of 0.01% H-Ile-Glu-Trp-OH solution for 30 days.

[8] = Effect on arterial pressure, cats; type: in vivo
Text: The effects of H-Ile-Glu-Trp-OH on ECG and arterial pressure were studied in guinea pigs and cats.
The influence of H-Ile-Glu-Trp-OH on arterial pressure was studied in 10 cats.

[9] = Solubility; type: physicochemical
Text: The peptide prepared using this process is a yellowish grey or white powder, soluble in water, substantially insoluble in alcohol and substantially insoluble in chloroform. It has a UV spectrum in the range of 250-300 nm with a maximum at 280±2 nm.

[10] = Chronic toxicity: peritheric blood and internals, 30 days, rabbits; type: in vivo; conditions: once daily for 30 days
Protocol: II.1 The H-Ile-Glu-Trp-OH effect on the composition and properties of the peritheric blood, the morphological state of the internals.
The drug was injected once daily for 30 days.
The test animals were 20 rabbits and 40 guinea pigs.

[11] = Allergenicity study; type: in vivo, rabbits; conditions: subcutaneous 0.01% solution for 5 days
Protocol: The study was performed in 12 rabbits, who received subcutaneous injections of 0.01% H-Ile-Glu-Trp-OH solution for 5 days. The control animals were injected with horse serum.

Substance: H-Ile-Glu-Trp-OH
- Survival ([1]; scheme 1 (footnote of Table 7)): 100%
- Karyocyte Count in Blood ([1]; 1 Time, Day 4): 0.80 ± 0.5 × 10^3 /lmm^3
- Karyocyte Count in Blood ([1]; 1 Time, Day 7): 3.53 ± 0.5 × 10^3 /lmm^3
- Karyocyte Count in Blood ([1]; 1 Time, Day 10): 4.30 ± 0.3 × 10^3 /lmm^3
- Karyocyte Count in Blood ([1]; 1 Time, Day 16): 4.49 ± 0.8 × 10^3 /lmm^3
- Karyocyte Count in Blood ([1]; 2 Times, Day 4): 1.30 ± 0.2 × 10^3 /lmm^3
- Karyocyte Count in Blood ([1]; 2 Times, Day 7): 3.64 ± 0.6 × 10^3 /lmm^3
- Karyocyte Count in Blood ([1]; 2 Times, Day 10): 6.42 ± 0.7 × 10^3 /lmm^3
- Karyocyte Count in Blood ([1]; 2 Times, Day 16): 5.96 ± 1.0 × 10^3 /lmm^3
- Karyocyte Count in Blood ([1]; 3 Times, Day 4): 1.19 ± 0.1 × 10^3 /lmm^3
- Karyocyte Count in Blood ([1]; 3 Times, Day 7): 5.58 ± 0.7 × 10^3 /lmm^3
- Karyocyte Count in Blood ([1]; 3 Times, Day 10): 4.18 ± 0.8 × 10^3 /lmm^3
- Karyocyte Count in Blood ([1]; 3 Times, Day 16): 6.32 ± 0.7 × 10^3 /lmm^3
- Karyocyte Count in Blood ([1]; 4 Times, Day 4): 1.64 ± 0.2 × 10^3 /lmm^3
- Karyocyte Count in Blood ([1]; 4 Times, Day 7): 4.14 ± 0.8 × 10^3 /lmm^3
- Karyocyte Count in Blood ([1]; 4 Times, Day 10): 4.90 ± 0.7 × 10^3 /lmm^3
- Karyocyte Count in Blood ([1]; 4 Times, Day 16): 7.32 ± 1.0 × 10^3 /lmm^3
- Lymphocytes (absolute) in blood ([1]; scheme 1, 1 Time, Day 4): 232
- Lymphocytes, % in blood ([1]; scheme 1, 1 Time, Day 4): 29.0 ± 2.5%
- Lymphocytes (absolute) in blood ([1]; scheme 1, 1 Time, Day 7): 1365
- Lymphocytes, % in blood ([1]; scheme 1, 1 Time, Day 7): 38.8 ± 3.1%
- Lymphocytes (absolute) in blood ([1]; scheme 1, 1 Time, Day 10): 1118
- Lymphocytes, % in blood ([1]; scheme 1, 1 Time, Day 10): 26.3 ± 2.9%
- Lymphocytes (absolute) in blood ([1]; scheme 1, 1 Time, Day 16): 2412
- Lymphocytes, % in blood ([1]; scheme 1, 1 Time, Day 16): 53.6 ± 6.0%
- Lymphocytes (absolute) in blood ([1]; scheme 1, 2 Times, Day 4): 468
- Lymphocytes, % in blood ([1]; scheme 1, 2 Times, Day 4): 36.0 ± 1.7%
- Lymphocytes (absolute) in blood ([1]; scheme 1, 2 Times, Day 7): 1260
- Lymphocytes, % in blood ([1]; scheme 1, 2 Times, Day 7): 34.8 ± 2.1%
- Lymphocytes (absolute) in blood ([1]; scheme 1, 2 Times, Day 10): 1664
- Lymphocytes, % in blood ([1]; scheme 1, 2 Times, Day 10): 25.5 ± 2.7%
- Lymphocytes (absolute) in blood ([1]; scheme 1, 2 Times, Day 16): 2682
- Lymphocytes, % in blood ([1]; scheme 1, 2 Times, Day 16): 44.8 ± 6.2%
- Lymphocytes (absolute) in blood ([1]; scheme 1, 3 Times, Day 4): 432
- Lymphocytes, % in blood ([1]; scheme 1, 3 Times, Day 4): 36.0 ± 1.3%
- Lymphocytes (absolute) in blood ([1]; scheme 1, 3 Times, Day 7): 1512
- Lymphocytes, % in blood ([1]; scheme 1, 3 Times, Day 7): 27.1 ± 1.9%
- Lymphocytes (absolute) in blood ([1]; scheme 1, 3 Times, Day 10): 1233
- Lymphocytes, % in blood ([1]; scheme 1, 3 Times, Day 10): 29.5 ± 3.6%
- Lymphocytes (absolute) in blood ([1]; scheme 1, 3 Times, Day 16): 2853
- Lymphocytes, % in blood ([1]; scheme 1, 3 Times, Day 16): 44.8 ± 4.80%
- Lymphocytes (absolute) in blood ([1]; scheme 1, 4 Times, Day 4): 639
- Lymphocytes, % in blood ([1]; scheme 1, 4 Times, Day 4): 39.0 ± 2.9%
- Lymphocytes (absolute) in blood ([1]; scheme 1, 4 Times, Day 7): 1025
- Lymphocytes, % in blood ([1]; scheme 1, 4 Times, Day 7): 25.6 ± 3.7%
- Lymphocytes (absolute) in blood ([1]; scheme 1, 4 Times, Day 10): 1475
- Lymphocytes, % in blood ([1]; scheme 1, 4 Times, Day 10): 30.7 ± 6.5%
- Lymphocytes (absolute) in blood ([1]; scheme 1, 4 Times, Day 16): 2847
- Lymphocytes, % in blood ([1]; scheme 1, 4 Times, Day 16): 38.5 ± 1.40%
- Colony Count ([2]; bone marrow 1 Gy, 2.5 mcg/Kg i.v.): 6.0 ± 0.7
- Colony Count ([2]; bone marrow 1 Gy, 10 mcg/Kg i.m.): 10.6 ± 0.8
- Colony Count ([2]; bone marrow 1 Gy, 10 mcg/Kg i.p.): 8.2 ± 0.7
- Colony Count ([2]; bone marrow 1 Gy, 10 mcg/Kg i.v.): 8.7 ± 0.4
- Colony Count ([2]; bone marrow 1 Gy, 25 mcg/Kg i.v.): 7.6 ± 0.4
- Colony Count ([2]; bone marrow 1 Gy, 50 mcg/Kg i.v.): 7.1 ± 0.5
- Colony Count ([2]; bone marrow 1 Gy, 100 mcg/Kg i.v.): 6.0 ± 0.5
- Colony Count ([2]; bone marrow 1 Gy, 200 mcg/Kg i.v.): 5.3 ± 0.7
- Colony Count ([2]; bone marrow 1 Gy, 500 mcg/Kg i.v.): 4.2 ± 0.3
- Colony Count ([2]; bone marrow 3 Gy, 10 mcg/Kg i.v.): 2.3 ± 0.3
- Average Colony Count ([3]; RAMBS-treated bone marrow + preparation, lethally irradiated mice): 6,3 ± 0,4
- increase of colony yields as compared to RAMBS-treated bone marrow ([3]; mouse, in vivo): 2-3 times
- in vitro activity relative to other known compounds [4]: 10^3 times
- E-rosette formation after treatment with trypsin and compound ([4]; 10^-6 mg/ml): 61.4
- E-rosette formation after treatment with trypsin and compound ([4]; 10^-7 mg/ml): 63.9
- E-rosette formation after treatment with trypsin and compound ([4]; 10^-8 mg/ml): 64.8
- E-rosette formation after treatment with trypsin and compound ([4]; 10^-9 mg/ml): 60.2
- E-rosette formation after treatment with trypsin and compound ([4]; 10^-10 mg/ml): 37.5
- E-rosette formation after treatment with trypsin and compound ([4]; 10^-11 mg/ml): 40.0
- E-rosette formation after treatment with trypsin and compound ([4]; 10^-12 mg/ml): 34.3
- anti-diuretic activity [5]: not to have any anti-diuretic activity
- acute toxicity [6]: No toxic effects were observed
- liver function [7]: not to have any toxic effect on the liver function
- ECG readings and arterial pressure [8]: No significant difference from control
- Solubility ([9]; alcohol): moderately soluble
- Solubility ([9]; chloroform): insoluble
- Solubility ([9]; water): readily soluble
- pathologic changes in the body or peritheric blood [10]: did not cause any pathologic changes
- reaction on the injection sites [11]: No macroscopic reaction
